Test results published in patent US12575768B2, “Analyte sensor antimicrobial configurations and adhesives” (Abbott Diabetes Care, Inc., priority 2018, dated 2026).

Tested on: gram-positive bacteria strains associated with common skin flora and wound infection
Assay: modified Kirby-Bauer disk diffusion assay, overall conclusion
Assay type: cell-based
Details: conclusion from zone of inhibition measurements of Table 1
Protocol: Example 3: […] Testing of Silver-Based Antimicrobial Quality. In this example, sensors membranes comprising the silver-based antimicrobial compounds of Example 2 (tested in quadruplicate for each of the sensors in Example 2) and the Control of Example 2 were evaluated […] against a variety of gram-positive bacteria strains associated with common skin flora and wound infection, and which were nosocomial-derived using a modified Kirby-Bauer disk diffusion assay for antibiotic susceptibility testing. The bacteria used for evaluation were Staphylococcus aureus (MRSA) (ATCC #33591), Staphylococcus epidermidis (ATCC #12228), Enterococcus faecalis (ATCC #4082), and Streptococcus pyogenes (ATCC #19615). Each were cultured on Tryptic Soy Agar, except for S. pyogenes, which were cultured on Blood Agar.

| Structure (SMILES) | antimicrobial properties (in words) |
| --- | --- |
| [Cl][Ag] [silver chloride] | demonstrate antimicrobial properties |
| [Ag][I] [silver iodide] | demonstrate antimicrobial properties |
